# Assay results published in PubChem BioAssay AID1996.
# Conditions: buffer; pH 7.4; 200.0 µM
row,Compound,solubility kinetic [µg/mL]
1,O=C(NCCC1=CCCCC1)C1CCN(C(=O)Cc2ccccc2)CC1,> 53.2
2,O=C(/C=C/c1ccc(F)cc1)NC(=S)Nc1ccccc1O,1.8
3,COc1ccc2nc3oc(C(=O)NCCCOC(C)C)cc3cc2c1,12
4,COc1cccc(OC)c1C(=O)NC(=O)Nc1c(C)cccc1C,5.2
5,Cc1ccc(C(=O)NCCc2ccccc2)cc1N1CCCC1=O,> 48.4
6,O=S(=O)(NC1=NCCCCC1)c1ccc(F)cc1,> 40.5
7,Cc1cccc(C)c1-n1c(=O)n(Cc2ccccc2)c(=O)c2[nH]cnc21,20.4
8,Cc1ccnc(NC(=O)CSc2ccccn2)c1,36.7
9,Cc1nn(-c2ccccc2)c2[nH]c(=O)cc(C(F)F)c12,> 41.3
10,Cc1ccc(NC(=O)C2CC2c2ccccc2)cc1 (stereo not given),2.4
11,O=C(Cn1c(=S)[nH]c2ncccc2c1=O)NCCc1ccccc1,2.1
12,Cc1cccc(Nc2nc(-c3ccccc3)cs2)n1,0.3
13,Cc1ccc(C(=O)N=c2sccn2C)cc1C,10
14,COc1ccc(/C=C/C(=O)OCc2cccc([N+](=O)[O-])c2)cc1,< 0.7
15,O=C1CN(O)C(c2ccccc2)=c2cc(Cl)ccc2=N1,37.9
16,O=C(Nc1ccc(F)c(Cl)c1)C1CC(=O)n2c(nc3ccccc32)N1 (stereo not given),0.4
17,Cc1ccccc1NC(=O)CN1C(=O)c2ccccc2C1=O,8.5
18,O=C1CN(C(=O)COC(=O)c2ccc(Br)o2)c2ccccc2N1,9.5
19,O=C(/C=C/NCc1cccnc1)C(F)(F)C(F)(F)F,> 42
20,COc1ccc(NC(=O)COC(=O)c2cccn2C)cc1S(=O)(=O)N1CCCCC1,32.6
21,O=C(Nc1sc2c(c1C(=O)O)CCCC2)c1cccc(Cl)c1,45.5
22,CCN(C(=S)Nc1cccnc1)c1ccccc1,36.3
23,CCOC(=O)C1=C(COC(=O)Cc2ccccc2)NC(=O)NC1C (stereo not given),> 49.9
24,CC1(C)CC(=O)c2cnc(NC(=O)CSC(=S)N3CCCCC3)nc2C1,2.9

row,Compound,solubility kinetic [µg/mL]
1,O=C(CS(=O)c1ccc(Br)cc1)N1CCOCC1 (stereo not given),49.4
2,COc1ccc(S(=O)(=O)NC2CCCCCC2)cc1C(N)=O,11.9
3,O=C(CC1SC(N2CCOCC2)=NC1=O)Nc1ccc(F)cc1 (stereo not given),> 50.6
4,CC1CNCCN1S(=O)(=O)c1cccc2cnccc12.Cl (stereo not given),> 54.6
5,CCOC(=O)N1CCN(S(=O)(=O)c2ccc([N+](=O)[O-])cc2)CC1,36.9
6,NS(=O)(=O)c1ccc(NC(=O)CCCC(=O)O)cc1,> 42.9
7,COc1ccc(NC(=O)CC(C)CC(=O)NCc2ccc(F)cc2)c(OC)c1 (stereo not given),6.8
8,COc1ccc(CNC(=O)c2sccc2C)cc1,> 39.2
9,CN(C)S(=O)(=O)c1cccc(NC(=O)Cc2ccsc2)c1,> 48.7
10,CC(=O)Nc1ccc(CC(=O)O)cc1,> 29
11,COc1ccc(C=O)cc1Oc1nc(Cl)ncc1F,32
12,O=C(Cc1ccccc1)NCc1ccncc1,28.2
13,NCCc1nc2ccccc2s1,23.2
14,CCn1cc(CCC(=O)O)c(C)n1,> 27.3
15,OC(CC#CCN1CCCCC1)(c1ccccc1)c1ccccc1,> 47.9
16,COc1ccc([N+](=O)[O-])cc1NC(=O)Cc1noc2ccccc12,0.3
17,CC(=C\c1ccccc1)/C=C1/SC(=S)N(CCCC(=O)O)C1=O,> 52.1
18,O=C(Nc1nc2ccccc2[nH]1)c1cccc(Br)c1,0.6
19,COc1ccc(CC(=O)O/N=C(\N)Cc2ccc([N+](=O)[O-])cc2)cc1,5.6
20,CCOc1ccc(N2C(=O)CNC2=S)cc1,> 35.4
21,O=C(CCS(=O)(=O)c1ccccc1)NC1CCCCC1,> 44.3
22,O=C(Nc1ccc(Cl)cc1)C1(S(=O)(=O)c2ccccc2)CC1,7.7
23,CN(C)CC#CCC(O)(c1ccccc1)c1ccccc1,> 41.9
24,N#Cc1c(Nc2ccccc2)c(C=O)c[nH]c1=O,> 35.9

row,Compound,solubility kinetic [µg/mL]
1,O=C(Nc1nc(-c2cccnc2)cs1)c1ccccc1F,< 0.2
2,Cc1ccc(NS(=O)(=O)c2ccc3c(c2)oc(=O)n3C)cc1C,< 0.4
3,COc1ccccc1NC(=O)CSc1nc(SC)ns1,32.8
4,CC1COC(Cn2c3ccccc3c3ccccc32)O1 (stereo not given),12.1
5,O=C1C2C3C=CC(C3)C2C(=O)N1c1cccc2ccccc12 (stereo not given),22.9
6,Cc1cccc(CN2C3=NCCCN3c3ccccc32)c1.Cl,> 47.1
7,COc1ccc(C(=O)CC(=O)C(=O)Nc2cc(C)ccc2C)cc1,11.2
8,CC1CCCN(C(=O)COC(=O)COc2ccc(C#N)cc2)C1 (stereo not given),> 47.5
9,Cl.NC1(C(=O)O)CC1,> 20.6
10,COCCNC(=S)N1CCN(S(=O)(=O)c2ccc(Cl)s2)CC1,11.4
11,COCCN(CCOC)S(=O)(=O)c1ccc(Cl)nc1,45.3
12,COC(=O)/C=C1\N/C(=N/c2nc(C)c3cc(OC)ccc3n2)NC1=O,1.4
13,N#C/C(=C\c1cccnc1)c1ccc([N+](=O)[O-])cc1,13.1
14,O=C(Nc1ccc(F)c(Cl)c1)Nc1csc2ccccc12,1
15,Cc1nc(NC(=O)c2c(-c3ccccc3)noc2C)sc1C(=O)N(C)C,> 55.6
16,COc1ccccc1NS(=O)(=O)c1ccc2oc(SC)nc2c1,1.9
17,COc1ccc(S(=O)(=O)n2c([N+](=O)[O-])cnc2C)c(C)c1C,45.2
18,CC(C)(C)c1csc(NC(=O)c2c(F)c(F)c(F)c(F)c2F)n1,21.3
19,CN(C)c1ccc(/C=C/C#N)cc1,5.4
20,CC(=O)c1cc2c(cc1NC(=O)c1ccc(Cl)cc1)OCCO2,< 0.7
21,CC1CCN(CCC(=O)Nc2ccc(F)c(F)c2)CC1,> 42.3
22,CC(OC(=O)C1CC1C)C(=O)Nc1ccc(Cl)cn1 (stereo not given),40.9
23,CCCNC(=O)N1CCC(c2nc3ccccc3s2)CC1,> 45.5
24,CSc1ncccc1C(=O)NC1CCCCCC1,35.5

row,Compound,solubility kinetic [µg/mL]
1,Cc1ccc(NS(=O)(=O)c2ccc(-c3csc(C)n3)s2)c(C)c1,< 0.4
2,COc1cc(NC(=O)COC(=O)C=C(C)C)c(C)cc1[N+](=O)[O-],17.2
3,O=S(=O)(Cc1ccccc1)Nc1ccccc1,> 37.1
4,Nc1ccc(Oc2ncccn2)c(Cl)c1,> 33.2
5,CN(C)S(=O)(=O)c1ccc(=S)[nH]c1,12.2
6,O=C(CCNC(=O)c1ccc(Cl)cc1)NCc1ccco1,> 46
7,Cc1c(C=O)c2ccccn2c1C(=O)c1ccc(F)cc1,6.5
8,O=S(=O)(c1ccccc1)c1nc(-c2ccco2)oc1N1CCCCC1,16.1
9,c1ccc2cc(Cn3ccnc3)ccc2c1,28.5
10,OC(CN1CCN(c2ccc(C(F)(F)F)cn2)CC1)c1ccccc1 (stereo not given),1.8
11,NC(=O)C1CCN(C(=O)NC(=O)c2ccccc2)CC1,> 41.3
12,O=C(COc1ccc(Br)cc1F)NCC1(N2CCCCC2)CCCCC1,> 64.1
13,Cc1cc(/C=C2/NC(=O)NC2=O)c(C)n1-c1ccncc1,> 42.3
14,Cn1c(=O)c([N+](=O)[O-])c(NCc2ccc3c(c2)OCO3)c2ccccc21,0.9
15,Fc1ccc2[nH]c3c(N4CCc5ccccc5C4)ncnc3c2c1,1.2
16,Cn1cnnc1SCC(=O)c1ccc2c(c1)NC(=O)CO2,> 45.6
17,N#C/C(=C\c1ccc(F)c(Br)c1)C(=O)NC1CC1,6.1
18,CN(CC1CCCN(CCc2ccc(F)cc2)C1)C(=O)CCC(F)(F)F (stereo not given),48.5
19,Oc1ccc2ccccc2c1C=NC12CN3CCN(CN(C3)C1)C2,46.5
20,CC(NC(=O)COC(=O)C1CC1C)c1cccc(Cl)c1 (stereo not given),> 44.4
21,O=C(Nc1ccon1)c1ccc(Br)s1,5.5
22,Cc1cccc(NC(=S)NCCc2ccc(Cl)cc2)c1C,0.6
23,CCN(C(=O)CSc1nc2scc(-c3ccccc3)c2c(=O)n1C)C1CCS(=O)(=O)C1 (stereo not given),3.1
24,Cc1ccc(CNC(=O)C2CCC(=O)N2Cc2ccc(F)cc2)cc1 (stereo not given),50.2

row,Compound,solubility kinetic [µg/mL]
1,O=C(Nc1nc2ccccc2[nH]1)c1cccc(F)c1,6.6
2,O=C(CSc1ncccn1)NCCC1=CCCCC1,> 41.6
3,Cc1ccc(NC(=O)C2CCCN2C(=O)NCc2ccccc2)cc1 (stereo not given),5
4,COc1ccc(CC(=O)NC2CCSc3ccccc32)cc1OC (stereo not given),0.7
5,O=C(NCC(O)c1ccc2ccccc2c1)c1c(F)cccc1F (stereo not given),41.9
6,CCOc1cc(N2CCOCC2)c(OCC)cc1NC(=O)COC(=O)c1ccc([N+](=O)[O-])o1,> 69.5
7,O=S(=O)([N-]c1nc2ccccc2nc1-[n+]1ccccc1)c1ccc(F)cc1,50.3
8,O=C(Nc1cccnc1Cl)c1cc(-c2ccccc2O)on1,0.9
9,COc1ccc(NC(=O)CN(C)C2CCCCC2)cc1Cl,32.7
10,C=CCNC(=S)NNC(=O)c1ccncc1,> 35.4
11,CCCCn1c(N)c(N(CCOC)C(=O)CN(C)CC(=O)Nc2ccc(Cl)c(Cl)c2)c(=O)[nH]c1=O,> 79.4
12,CN(Cc1c(F)cccc1Cl)C(=O)CNC(=O)c1cccs1,> 51.1
13,COCC(C)NC(=O)c1ccc2nc(-c3ccccc3)c(-c3ccccc3)nc2c1 (stereo not given),5.3
14,CCc1cccc(NC(=O)CCCN2C(=O)NC(C)(C)C2=O)c1,> 47.6
15,O=C(O)c1ccccc1-c1cc2ccccc2[nH]1,29.9
16,Cc1cccc(C)c1NC(=O)CN(C)C(=O)Cn1c(=O)cnc2ccccc21,52.6
17,O=c1cc(Cl)c2ccccc2n1-c1ccccc1,> 38.4
18,COc1ccc(-c2noc(CCC(=O)Nc3cccnc3)n2)cc1,3.8
19,COc1ccccc1CNCCc1ccc(F)cc1.O=C(O)C(=O)O,> 52.4
20,COc1cccc(C(=O)OCCNC(=O)c2cccnc2)c1.Cl,43.3
21,COc1ccc(C)cc1Nc1ccc(C(=O)O)cc1[N+](=O)[O-],44.3
22,COCC1CCN(Cc2nc(COc3ccccc3)no2)C1 (stereo not given),37.2
23,CCOc1ccc2nc(SCC(=O)NC3CC3)sc2c1,13.1
24,COc1cc(C)nc(-c2csc(C)n2)n1,28.6
